This note sets out measurements from the supplement of paper PMC10307832.

Holding throughout (assay): relative viability (nuclei count vs DMSO), 5 days (fraction); higher = more cells survive
Compound in assay [1]: CCN1CCC(CC1)N2C=C(N=N2)CNC3=CC4=C(C(=CN=C4C(=C3)Cl)C#N)NC5=CC(=C(C=C5)F)Cl [KIN001-266] + CS(=O)(=O)N1CCN(Cc2cc3nc(-c4cccc5[nH]ncc45)nc(N4CCOCC4)c3s2)CC1 [Pictilisib] (partner 1 µM)
The essentials: (§1)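 Relative viability is defined as nuclei in treated wells over nuclei in vehicle wells. Duplicate plates were run and medians reported. Lung cancer cell lines in 1536-well plates were dosed by pin tool one day after seeding, with one drug or with a fixed anchor-drug dose plus five library-drug doses (not always all listed) in √10 steps, and nuclei were counted after 5 days.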

Compound in assay [2]: CCN1CCC(CC1)N2C=C(N=N2)CNC3=CC4=C(C(=CN=C4C(=C3)Cl)C#N)NC5=CC(=C(C=C5)F)Cl [KIN001-266] + CC(=O)c1c(C)c2cnc(Nc3ccc(N4CCNCC4)cn3)nc2n(C2CCCC2)c1=O [Palbociclib] (partner 0.5 µM)
An outline of the steps: as §1

Compound in assay [3]: CCN1CCC(CC1)N2C=C(N=N2)CNC3=CC4=C(C(=CN=C4C(=C3)Cl)C#N)NC5=CC(=C(C=C5)F)Cl [KIN001-266] + Nc1ncn([C@H]2C[C@H](O)[C@@H](CO)O2)c(=O)n1 [Decitabine] (partner 2 µM)
An outline of the steps:
as §1

Compound in assay [4]: CCN1CCC(CC1)N2C=C(N=N2)CNC3=CC4=C(C(=CN=C4C(=C3)Cl)C#N)NC5=CC(=C(C=C5)F)Cl [KIN001-266] + N=C(N)NC(=N)NCCc1ccccc1 [Phenformin] (partner 250 µM)
An outline of the steps: as §1

Turning to EMC-BAC-2, the relative viability in assay [1] (first compound 0.08 µM) is 0.551; in assay [1] (first compound 0.253 µM), 0.55; in assay [1] (first compound 0.8 µM), 0.505; in assay [1] (first compound 2.53 µM), 0.523; in assay [1] (first compound 8 µM), 0.513; in assay [2] (first compound 0.08 µM), 0.54. For the same cell line, the relative viability in assay [2] (first compound 0.253 µM) was determined as 0.581; in assay [2] (first compound 0.8 µM), 0.523; in assay [2] (first compound 2.53 µM), 0.562; in assay [2] (first compound 8 µM), 0.561; in assay [3] (first compound 0.08 µM) it was 1.04; in assay [3] (first compound 0.253 µM), 1.04. For the same cell line, the relative viability came to 0.965 in assay [3] (first compound 0.8 µM); 0.984 in assay [3] (first compound 2.53 µM); 0.988 in assay [3] (first compound 8 µM); 0.56 in assay [4] (first compound 0.08 µM); 0.516 in assay [4] (first compound 0.253 µM); 0.482 in assay [4] (first compound 0.8 µM). In addition, the relative viability came out at 0.54 in assay [4] (first compound 2.53 µM) and 0.475 in assay [4] (first compound 8 µM).

For NCI-H1703, the relative viability came to 0.287 in assay [1] (first compound 0.08 µM); 0.23 in assay [1] (first compound 0.253 µM); 0.234 in assay [1] (first compound 0.8 µM); 0.211 in assay [1] (first compound 2.53 µM); 0.223 in assay [1] (first compound 8 µM).

Take NCI-H2228: the relative viability worked out at 0.343 in assay [1] (first compound 0.08 µM); 0.312 in assay [1] (first compound 0.253 µM); 0.425 in assay [1] (first compound 0.8 µM); 0.276 in assay [1] (first compound 2.53 µM); 0.432 in assay [1] (first compound 8 µM); 0.836 in assay [2] (first compound 0.08 µM). For the same cell line, the relative viability in assay [2] (first compound 0.253 µM) worked out at 0.797; in assay [2] (first compound 0.8 µM), 0.936; in assay [2] (first compound 2.53 µM) it was 0.763; in assay [2] (first compound 8 µM), 0.664; in assay [4] (first compound 0.08 µM), 0.392; in assay [4] (first compound 0.253 µM), 0.282. Besides, the relative viability in assay [4] (first compound 0.8 µM) was determined as 0.322; in assay [4] (first compound 2.53 µM) it was 0.296; in assay [4] (first compound 8 µM) it was 0.281.

For the cell line EBC-1, the relative viability came to 0.416 in assay [1] (first compound 0.08 µM); 0.519 in assay [1] (first compound 0.253 µM); 0.553 in assay [1] (first compound 0.8 µM); 0.576 in assay [1] (first compound 2.53 µM); 0.329 in assay [1] (first compound 8 µM).

NCI-H1299: the relative viability came to 0.98 in assay [1] (first compound 0.08 µM); 0.754 in assay [1] (first compound 0.253 µM); 0.893 in assay [1] (first compound 0.8 µM); 0.75 in assay [1] (first compound 2.53 µM); 0.424 in assay [1] (first compound 8 µM).

As to NCI-H1648, the relative viability in assay [2] (first compound 0.08 µM) was found to be 0.298; in assay [2] (first compound 0.253 µM), 0.277; in assay [2] (first compound 0.8 µM) it was 0.277; in assay [2] (first compound 2.53 µM), 0.281; in assay [2] (first compound 8 µM) it was 0.261; in assay [3] (first compound 0.08 µM), 0.487. The relative viability in assay [3] (first compound 0.253 µM) was found to be 0.497; in assay [3] (first compound 0.8 µM), 0.501; in assay [3] (first compound 2.53 µM), 0.507; in assay [3] (first compound 8 µM), 0.517.

SW 900: the relative viability turned out to be 0.558 in assay [2] (first compound 0.08 µM); 0.498 in assay [2] (first compound 0.253 µM); 0.611 in assay [2] (first compound 0.8 µM); 0.555 in assay [2] (first compound 2.53 µM); 0.268 in assay [2] (first compound 8 µM); 0.733 in assay [3] (first compound 0.08 µM). The relative viability is 0.448 in assay [3] (first compound 0.253 µM); 0.463 in assay [3] (first compound 0.8 µM); 0.427 in assay [3] (first compound 2.53 µM); 0.343 in assay [3] (first compound 8 µM); 0.617 in assay [4] (first compound 0.08 µM); 0.564 in assay [4] (first compound 0.253 µM). In addition, the relative viability in assay [4] (first compound 0.8 µM) stood at 0.537; in assay [4] (first compound 2.53 µM), 0.564; in assay [4] (first compound 8 µM), 0.357.

Regarding NCI-H596, the relative viability in assay [1] (first compound 0.08 µM) is 0.407; in assay [1] (first compound 0.253 µM), 0.401; in assay [1] (first compound 0.8 µM), 0.385; in assay [1] (first compound 2.53 µM), 0.4; in assay [1] (first compound 8 µM), 0.38; in assay [3] (first compound 0.08 µM) it was 1.13. In addition, the relative viability in assay [3] (first compound 0.253 µM) worked out at 1.19; in assay [3] (first compound 0.8 µM) it was 0.967; in assay [3] (first compound 2.53 µM), 1.07; in assay [3] (first compound 8 µM), 0.99; in assay [4] (first compound 0.08 µM), 0.718; in assay [4] (first compound 0.253 µM), 0.805. Besides, the relative viability was found to be 0.686 in assay [4] (first compound 0.8 µM), 0.721 in assay [4] (first compound 2.53 µM) and 0.677 in assay [4] (first compound 8 µM).

Turning to IA-LM, the relative viability in assay [1] (first compound 0.08 µM) was found to be 0.336; in assay [1] (first compound 0.253 µM) it was 0.364; in assay [1] (first compound 0.8 µM), 0.274; in assay [1] (first compound 2.53 µM) it was 0.348; in assay [1] (first compound 8 µM), 0.317.

In the case of NCI-H1563, the relative viability stood at 0.662 in assay [1] (first compound 0.08 µM); 0.636 in assay [1] (first compound 0.253 µM); 0.636 in assay [1] (first compound 0.8 µM); 0.656 in assay [1] (first compound 2.53 µM); 0.677 in assay [1] (first compound 8 µM); 0.663 in assay [4] (first compound 0.08 µM). In addition, the relative viability in assay [4] (first compound 0.253 µM) worked out at 0.694; in assay [4] (first compound 0.8 µM) it was 0.669; in assay [4] (first compound 2.53 µM), 0.583; in assay [4] (first compound 8 µM), 0.62.

As for NCI-H2342, the relative viability in assay [2] (first compound 0.08 µM) was found to be 0.52; in assay [2] (first compound 0.253 µM), 0.518; in assay [2] (first compound 0.8 µM), 0.471; in assay [2] (first compound 2.53 µM) it was 0.597; in assay [2] (first compound 8 µM) it was 0.575; in assay [3] (first compound 0.08 µM), 0.693. Besides, the relative viability in assay [3] (first compound 0.253 µM) was determined as 0.762; in assay [3] (first compound 0.8 µM), 0.662; in assay [3] (first compound 2.53 µM), 0.872; in assay [3] (first compound 8 µM), 0.817; in assay [4] (first compound 0.08 µM) it was 0.638; in assay [4] (first compound 0.253 µM), 0.572. In addition, the values for the relative viability in assay [4] (first compound 0.8 µM), in assay [4] (first compound 2.53 µM) and in assay [4] (first compound 8 µM) were 0.537, 0.531 and 0.642, respectively.

Take NCI-H522: the relative viability in assay [2] (first compound 0.08 µM) came out at 1.04; in assay [2] (first compound 0.253 µM), 1.07; in assay [2] (first compound 0.8 µM), 0.952; in assay [2] (first compound 2.53 µM), 0.95; in assay [2] (first compound 8 µM), 0.804; in assay [3] (first compound 0.08 µM) it was 0.651. For the same cell line, the relative viability in assay [3] (first compound 0.253 µM) turned out to be 0.609; in assay [3] (first compound 0.8 µM), 0.777; in assay [3] (first compound 2.53 µM), 0.702; in assay [3] (first compound 8 µM), 0.678; in assay [4] (first compound 0.08 µM) it was 0.656; in assay [4] (first compound 0.253 µM), 0.641. Further, the relative viability in assay [4] (first compound 0.8 µM) is 0.653; in assay [4] (first compound 2.53 µM), 0.629; in assay [4] (first compound 8 µM) it was 0.591.

On to CAL-12T, for which the relative viability was 0.698 in assay [1] (first compound 0.08 µM); 0.539 in assay [1] (first compound 0.253 µM); 0.31 in assay [1] (first compound 2.53 µM); 0.47 in assay [1] (first compound 8 µM); 0.44 in assay [2] (first compound 0.08 µM); 0.492 in assay [2] (first compound 0.253 µM). For the same cell line, the relative viability stood at 0.438 in assay [2] (first compound 0.8 µM); 0.359 in assay [2] (first compound 2.53 µM); 0.419 in assay [2] (first compound 8 µM); 0.571 in assay [4] (first compound 0.08 µM); 0.545 in assay [4] (first compound 0.253 µM); 0.515 in assay [4] (first compound 0.8 µM). Moreover, the relative viability in assay [4] (first compound 2.53 µM) came to 0.568; in assay [4] (first compound 8 µM), 0.534.
